In patent US12226386B2, “Compositions and methods for treating biofilms” (The Regents of the University of California, priority 2018, dated 2025):
Like-named read-outs stand apart in the source and are kept apart here.

How the values were obtained:
[1] = system: bacteria (S. aureus) biofilm and fungal (C. albicans) biofilm; test: disruption biofilm assay, bacterial and fungal taken together; assay type: cell-based, Staphylococcus aureus; Candida albicans
Procedure: (§1) Other amino acids in the blood of animals could combat bacterial and fungal biofilm and therefore may be useful in treating these bacterial and fungal infections that would lie on the external surfaces of infected animals such as humans and could also be used to combat these pathogens on instruments and surfaces that need to be treated. Two types of biofilm assays were performed: a sustained inhibition assay and a disruption assay. The sustained inhibition assay assessed the compound's ability to prevent biofilm development throughout all stages of biofilm formation, while the disruption assay assessed the compound's ability to break up an existing mature biofilm.
(§2) For fungal biofilm assays, all solutions were prepared in RPMI 1640 medium. All bacterial biofilm solutions were prepared in Tryptic Soy Broth (TSB), supplemented with 1% glucose (henceforth referred to as TSB-G). All subsequent procedures were performed in a manner that maintained sterility. A solution of each amino acid to be tested was prepared in weight to volume concentrations ranging from 0.1-5.0%. Amino acids were also tested in combinations. Compound solutions were homogenized with gentle agitation in the dark (4° C., 24 hours) before use.
Fungal strains were streaked on Yeast Peptone Dextrose (YPD) agar plates and incubated at 30° C. for 48 hours. A single colony from each strain to be tested was inoculated into YPD broth and grown for 12 hours, at 30° C., shaking at 225 rpm. For the fungal biofilm inhibition assay, 1 μl of saturated overnight cell culture was added to either 80 μL of RPMI-1640 or RPMI-1640 supplemented with the amino acid compound solution to be tested, in a 384-well plate. […] Media was carefully aspirated and the biofilm was measured by optical density at 600 nm. […] Media was carefully aspirated and the biofilm was measured by optical density at 600 nm. […]
Bacterial strains were streaked on Blood Agar plates (5% sheep blood in Tryptic Soy Agar) and incubated at 37° C. for 24 hours. […] Media was carefully aspirated and the biofilm was measured by optical density at 600 nm. […]

[2] = system: Candida and Staphylococcus biofilms; test: biofilm assays (sustained inhibition and disruption), bacterial and fungal; assay type: cell-based, Candida albicans; Staphylococcus aureus; conditions: Tables 4 and 5
Procedure: In vitro biofilm formation was tested using two assays, sustained inhibition and disruption. Both assays assess biofilm formed on polystyrene plates. The first, tests the effects of amino acid solution on a developing biofilm, while the latter tests the effects of the solution on a pre-formed mature biofilm, both compared to media without supplemented amino acids.
as §1, §2
Fungal strains were streaked on Yeast Peptone Dextrose (YPD) agar plates and incubated at 30° C. for 48 hours. A single colony from each strain to be tested was inoculated into YPD broth and grown for 12 hours, at 30° C., shaking at 225 rpm. For the fungal biofilm inhibition assay, 1 μl of saturated overnight cell culture was added to either 80 μL of RPMI-1640 or RPMI-1640 supplemented with the amino acid compound solution to be tested, in a 384-well plate. The cells were allowed to adhere to the plate for 90 minutes at 37° C. shaking at 350 rpm. Loosely bound cells were washed once with phosphate buffered saline (PBS) and 80 μl of RPMI-1640, or RPMI-1640 supplemented with the amino acid compound solution was added to the plate. The plate was further incubated for 24 hours at 37° C. shaking at 350 rpm. Media was carefully aspirated and the biofilm was measured by optical density at 600 nm. Twelve replicates were performed for each tested condition and the reported values are normalized to the control (RPMI-1640 media only). For the fungal biofilm disruption assays, 80 μL of RPMI-1640 was added to the plate, along with 1 μL of overnight cell culture. The cells were allowed to adhere to the plate for 90 minutes at 37° C. shaking at 350 rpm. Loosely bound cells were washed once with PBS and 80 μL of RPMI-1640 was added to the plate. The plate was further incubated for 24 hours at 37° C. shaking at 350 rpm. Media was carefully aspirated from the mature biofilm and 80 μL of RPMI-1640, or RPMI-1640 supplemented with the amino acid compound solution to be tested, was gently added to the plate. The plate was further incubated for 24 hours at 37° C. shaking at 350 rpm. Media was carefully aspirated and the biofilm was measured by optical density at 600 nm. Twelve replicates were performed for each tested condition and the reported values are normalized to the control (RPMI-1640 media only).
Bacterial strains were streaked on Blood Agar plates (5% sheep blood in Tryptic Soy Agar) and incubated at 37° C. for 24 hours. A single colony from each strain to be tested was inoculated in a TSB broth and grown for 12 hours, at 37° C. shaking at 225 rpm. For the bacterial biofilm inhibition assays, 1 μL of saturated overnight cell culture was added to either 80 μL of TSB-G, or TSB-G supplemented with the amino acid compound solution to be tested, in a 384-well plate. […]

[3] = disruption, bacterial and fungal biofilm, 1% amino acid

Row | Structure (SMILES) | Reduce Both [1] | effect on Candida and Staphylococcus biofilms in inhibition and disruption assays [2] | Reduce Both [1, 3]
1 | N[C@@H](CCC(=O)O)C(=O)O [Glutamic Acid, L-glutamic acid] | ● (a single dot [i.e. ●] signifies minor effect (from about 10 to about 30% change)) | both inhibit and disrupt | 
2 | N[C@@H](CS)C(=O)O [Cysteine, L-cysteine] |  | both inhibit and disrupt | ●● (two dots [i.e. ●●] signifies major effect (greater than about 30% change))
3 | N[C@@H](CC(=O)O)C(=O)O [Aspartic Acid, L-aspartic acid] |  | both inhibit and disrupt | ●● (two dots [i.e. ●●] signifies major effect (greater than about 30% change))
